Calls of active or inactive are those of the source. No cut-off for these calls is given here.
Key:
MM1.S [1] = test: Antiproliferative activity against human MM1.S cells assessed as inhibition of cell growth incubated for 72 hrs by celltiter-glo assay; assay type: functional, cell-based
RPMI-8226 = test: Antiproliferative activity against human RPMI-8226 cells assessed as inhibition of cell growth incubated for 72 hrs by celltiter-glo assay; assay type: functional, cell-based; details: RPMI-8226, 72 h
KMS-11 = test: Antiproliferative activity against human KMS-11 cells assessed as inhibition of cell growth incubated for 72 hrs by celltiter-glo assay; assay type: functional, cell-based; details: KMS-11, 72 h
[2] = Antiproliferative activity against human ARP-1 cells assessed as inhibition of cell growth incubated for 72 hrs by celltiter-glo assay; assay type: functional, cell-based; details: ARP-1, 72 h
LAMA-84 = test: Antiproliferative activity against human LAMA-84 cells assessed as inhibition of cell growth incubated for 72 hrs by celltiter-glo assay; assay type: functional, cell-based; details: LAMA-84, 72 h
MV4-11 = test: Antiproliferative activity against human MV4-11 cells assessed as inhibition of cell growth incubated for 72 hrs by celltiter-glo assay; assay type: functional, cell-based; details: MV4-11, 72 h
ARH-77 = test: Antiproliferative activity against human ARH-77 cells assessed as inhibition of cell growth incubated for 72 hrs by celltiter-glo assay; assay type: functional, cell-based; details: ARH-77, 72 h
MOLM-13 = test: Antiproliferative activity against human MOLM-13 cells assessed as inhibition of cell growth incubated for 72 hrs by celltiter-glo assay; assay type: functional, cell-based; details: MOLM-13, 72 h
HCT-116 = test: Antiproliferative activity against human HCT-116 cells assessed as inhibition of cell growth incubated for 72 hrs by celltiter-glo assay; assay type: functional, cell-based; details: HCT-116, 72 h
LoVo = test: Antiproliferative activity against human LoVo cells assessed as inhibition of cell growth incubated for 72 hrs by celltiter-glo assay; assay type: functional, cell-based
BXPC-3 = test: Antiproliferative activity against human BXPC-3 cells assessed as inhibition of cell growth incubated for 72 hrs by celltiter-glo assay; assay type: functional, cell-based; details: BXPC-3, 72 h
AN3-CA = test: Antiproliferative activity against human AN3-CA cells assessed as inhibition of cell growth incubated for 72 hrs by celltiter-glo assay; assay type: functional, cell-based
SW872 = test: Antiproliferative activity against human SW872 cells assessed as inhibition of cell growth incubated for 72 hrs by celltiter-glo assay; assay type: functional, cell-based; details: SW872, 72 h
[3] = target: Ran-specific GTPase-activating protein (Homo sapiens, UniProt P43487); test: Inhibition of RANBP1 nuclear export in human U2OS cells assessed as increase in fluorescence intensity measured for 15 mins by DAPI staining based fluorescence microscopic analysis; assay type: cell-based
[4] = target: Exportin-1 (Homo sapiens) (UniProt O14980); test: Reversible binding affinity to CRM1 in human U2OS cells incubated for 4 hrs by DAPI staining based fluorescence microscopic analysis; assay type: cell-based
MM1.S [5] = test: Inhibition of CRM1 protein expression in human MM1.S cells by Western blot analysis; assay type: functional, cell-based; details: dose 0.25-1.25 µM
MM1.S [6] = test: Inhibition of CRM1 protein expression in human MM1.S cells at 0.25 to 1.25 uM by Western blot analysis; assay type: functional, cell-based; details: dose 0.25-1.25 µM, time 2-24 hrs
MM1.S [7] = test: Induction of apoptosis in human MM1.S cells at 0.5 to 1 uM incubated for 48 hrs by Annexin V-FITC/PI staining based flow cytometry analysis; assay type: functional, cell-based; details: dose 0.5-1 µM
MM1.S [8] = test: Induction of apoptosis in human MM1.S cells assessed as increase in FOXO3A signal intensity; assay type: functional, cell-based
[9] = Metabolic stability in human liver microsomes assessed as half life measured upto 60 mins in presence of NADPH by LC/MS-MS analysis; assay type: ADME, Microsome
[10] = Metabolic stability in mouse liver microsomes assessed as half life measured upto 60 mins in presence of NADPH by LC/MS-MS analysis; assay type: ADME, Microsome
[11] = Metabolic stability in rat liver microsomes assessed as half life measured upto 60 mins in presence of NADPH by LC/MS-MS analysis; assay type: ADME, Microsome
[12] = Metabolic stability in dog liver microsomes assessed as half life measured upto 60 mins in presence of NADPH by LC/MS-MS analysis; assay type: ADME, Canis lupus familiaris, Microsome
[13] = Metabolic stability in monkey liver microsomes assessed as half life measured upto 60 mins in presence of NADPH by LC/MS-MS analysis; assay type: ADME, Macaca mulatta, Microsome; details: rhesus monkey
[14] = Metabolic stability in human liver microsomes assessed as intrinsic clearance measured upto 60 mins in presence of NADPH by LC/MS-MS analysis; assay type: ADME, Microsome; details: read-out: CLH
[15] = Metabolic stability in mouse liver microsomes assessed as intrinsic clearance measured upto 60 mins in presence of NADPH by LC/MS-MS analysis; assay type: ADME, Microsome; details: read-out: CLH
[16] = Metabolic stability in rat liver microsomes assessed as intrinsic clearance measured upto 60 mins in presence of NADPH by LC/MS-MS analysis; assay type: ADME, Microsome; details: read-out: CLH
[17] = Metabolic stability in dog liver microsomes assessed as intrinsic clearance measured upto 60 mins in presence of NADPH by LC/MS-MS analysis; assay type: ADME, Canis lupus familiaris, Microsome; details: read-out: CLH
[18] = Metabolic stability in monkey liver microsomes assessed as intrinsic clearance measured upto 60 mins in presence of NADPH by LC/MS-MS analysis; assay type: ADME, Macaca mulatta, Microsome; details: rhesus monkey, read-out: CLH
[19] = Half life in male Sprague-Dawley rat at 2 mg/kg, iv measured upto 30 hrs by LC-MS/MS analysis; assay type: ADME, organism-based; details: in vivo
[20] = Half life in male Sprague-Dawley rat at 10 mg/kg, po measured upto 30 hrs by LC-MS/MS analysis; assay type: ADME, organism-based; details: in vivo
[21] = Cmax in male Sprague-Dawley rat at 10 mg/kg, po measured upto 30 hrs by LC-MS/MS analysis; assay type: ADME, organism-based; details: in vivo
[22] = Tmax in male Sprague-Dawley rat at 10 mg/kg, po measured upto 30 hrs by LC-MS/MS analysis; assay type: ADME, organism-based; details: in vivo
[23] = AUC (0 to t) in male Sprague-Dawley rat at 2 mg/kg, iv measured upto 30 hrs by LC-MS/MS analysis; assay type: ADME, organism-based; details: in vivo
[24] = AUC (0 to t) in male Sprague-Dawley rat at 10 mg/kg, po measured upto 30 hrs by LC-MS/MS analysis; assay type: ADME, organism-based; details: in vivo
[25] = AUC (0 to infinity) in male Sprague-Dawley rat at 2 mg/kg, iv measured upto 30 hrs by LC-MS/MS analysis; assay type: ADME, organism-based; details: in vivo
[26] = AUC (0 to infinity) in male Sprague-Dawley rat at 10 mg/kg, po measured upto 30 hrs by LC-MS/MS analysis; assay type: ADME, organism-based; details: in vivo
[27] = Oral bioavailability in male Sprague-Dawley rat at 10 mg/kg measured upto 30 hrs by LC-MS/MS analysis; assay type: ADME, organism-based; details: in vivo
[28] = target: Voltage-gated inwardly rectifying potassium channel KCNH2 (Homo sapiens, UniProt Q12809); test: Inhibition of hERG in HEK293 cells; assay type: toxicity, cell-based
[29] = Cmax in male Sprague-Dawley rat plasma at 10 mg/kg, IG measured at 6 hrs by LC-MS/MS analysis; assay type: ADME, organism-based; details: po
[30] = AUC in male Sprague-Dawley rat brain at 10 mg/kg, IG measured at 6 hrs by LC-MS/MS analysis; assay type: ADME, organism-based; details: po
[31] = AUC in male Sprague-Dawley rat plasma at 10 mg/kg, IG measured at 6 hrs by LC-MS/MS analysis; assay type: ADME, organism-based; details: po
[32] = Toxicity in BALB/c mouse assessed as decrease in body weight at 30 mg/kg, po administered once daily for 21 days; assay type: organism-based; details: in vivo, 504 h, time 21 day
[33] = Toxicity in BALB/c mouse assessed as animal death at 60 mg/kg, po measured on day 6,7 and 11; assay type: organism-based; details: in vivo, 576 h, time 24 day
[34] = Toxicity in BALB/c mouse assessed as appearance of erectile hair at 60 mg/kg, po administered once daily for 21 days; assay type: organism-based; details: in vivo, 504 h, time 21 day
[35] = Toxicity in BALB/c mouse assessed as appearance of loose stools at 60 mg/kg, po administered once daily for 21 days; assay type: organism-based; details: in vivo, 504 h, time 21 day
[36] = Toxicity in NOD-SCID mouse implanted with human MM1.S cells assessed as body weight loss at 15 mg/kg, po measured upto 21 days; assay type: organism-based; details: in vivo, 504 h, time < 21 day
[37] = Toxicity in NOD-SCID mouse assessed as shortening of villi in intestine at 15 mg/kg, po measured every 2 days for 21 days by H and E staining based analysis; assay type: organism-based; details: in vivo, 504 h, time 21 day
[38] = Toxicity in NOD-SCID mouse assessed as hyperplasia of crypt in intestine at 60 mg/kg, po measured every 2 days for 21 days by H and E staining based analysis; assay type: organism-based; details: in vivo, 504 h, time 21 day
[39] = Toxicity in NOD-SCID mouse assessed as loss of crypt depth in intestine at 60 mg/kg, po measured every 2 days for 21 days by H and E staining based analysis; assay type: organism-based; details: in vivo, 504 h, time 21 day
[40] = Toxicity in NOD-SCID mouse assessed as decrease in villus height to crypt depth ratio at 60 mg/kg, po measured every 2 days for 21 days by H and E staining based analysis; assay type: organism-based; details: in vivo, 504 h, time 21 day

Sequence of Voltage-gated inwardly rectifying potassium channel KCNH2 (Q12809 whole entry): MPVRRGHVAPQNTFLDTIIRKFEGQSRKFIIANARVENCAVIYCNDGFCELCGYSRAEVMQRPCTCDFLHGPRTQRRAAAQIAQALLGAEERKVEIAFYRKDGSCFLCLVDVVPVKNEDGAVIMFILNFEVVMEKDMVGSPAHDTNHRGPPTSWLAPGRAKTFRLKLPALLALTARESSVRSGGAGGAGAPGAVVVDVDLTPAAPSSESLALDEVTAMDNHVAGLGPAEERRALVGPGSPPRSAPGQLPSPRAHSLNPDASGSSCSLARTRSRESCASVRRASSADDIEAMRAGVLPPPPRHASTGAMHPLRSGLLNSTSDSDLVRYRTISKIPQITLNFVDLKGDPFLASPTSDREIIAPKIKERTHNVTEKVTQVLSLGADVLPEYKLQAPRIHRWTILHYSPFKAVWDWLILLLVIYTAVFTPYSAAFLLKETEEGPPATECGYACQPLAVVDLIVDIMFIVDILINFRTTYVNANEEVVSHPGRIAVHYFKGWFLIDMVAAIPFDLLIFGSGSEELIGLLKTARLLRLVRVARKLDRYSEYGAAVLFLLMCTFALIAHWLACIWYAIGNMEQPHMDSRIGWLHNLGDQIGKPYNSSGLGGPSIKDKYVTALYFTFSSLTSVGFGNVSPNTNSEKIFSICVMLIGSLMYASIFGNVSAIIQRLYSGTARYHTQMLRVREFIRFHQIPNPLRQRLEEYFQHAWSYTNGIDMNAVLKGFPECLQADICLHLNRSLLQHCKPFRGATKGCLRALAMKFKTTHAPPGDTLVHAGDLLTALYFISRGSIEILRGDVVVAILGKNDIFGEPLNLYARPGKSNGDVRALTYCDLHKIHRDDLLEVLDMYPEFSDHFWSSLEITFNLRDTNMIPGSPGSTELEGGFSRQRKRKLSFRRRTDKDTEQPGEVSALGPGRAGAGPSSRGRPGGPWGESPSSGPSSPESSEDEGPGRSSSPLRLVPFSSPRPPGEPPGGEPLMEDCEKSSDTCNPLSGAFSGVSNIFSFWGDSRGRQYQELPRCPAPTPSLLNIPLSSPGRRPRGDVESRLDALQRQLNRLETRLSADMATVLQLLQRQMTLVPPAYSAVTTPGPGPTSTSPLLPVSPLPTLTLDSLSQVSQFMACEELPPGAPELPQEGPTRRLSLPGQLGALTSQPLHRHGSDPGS
Sequence of Exportin-1 (Homo sapiens) (O14980 whole entry): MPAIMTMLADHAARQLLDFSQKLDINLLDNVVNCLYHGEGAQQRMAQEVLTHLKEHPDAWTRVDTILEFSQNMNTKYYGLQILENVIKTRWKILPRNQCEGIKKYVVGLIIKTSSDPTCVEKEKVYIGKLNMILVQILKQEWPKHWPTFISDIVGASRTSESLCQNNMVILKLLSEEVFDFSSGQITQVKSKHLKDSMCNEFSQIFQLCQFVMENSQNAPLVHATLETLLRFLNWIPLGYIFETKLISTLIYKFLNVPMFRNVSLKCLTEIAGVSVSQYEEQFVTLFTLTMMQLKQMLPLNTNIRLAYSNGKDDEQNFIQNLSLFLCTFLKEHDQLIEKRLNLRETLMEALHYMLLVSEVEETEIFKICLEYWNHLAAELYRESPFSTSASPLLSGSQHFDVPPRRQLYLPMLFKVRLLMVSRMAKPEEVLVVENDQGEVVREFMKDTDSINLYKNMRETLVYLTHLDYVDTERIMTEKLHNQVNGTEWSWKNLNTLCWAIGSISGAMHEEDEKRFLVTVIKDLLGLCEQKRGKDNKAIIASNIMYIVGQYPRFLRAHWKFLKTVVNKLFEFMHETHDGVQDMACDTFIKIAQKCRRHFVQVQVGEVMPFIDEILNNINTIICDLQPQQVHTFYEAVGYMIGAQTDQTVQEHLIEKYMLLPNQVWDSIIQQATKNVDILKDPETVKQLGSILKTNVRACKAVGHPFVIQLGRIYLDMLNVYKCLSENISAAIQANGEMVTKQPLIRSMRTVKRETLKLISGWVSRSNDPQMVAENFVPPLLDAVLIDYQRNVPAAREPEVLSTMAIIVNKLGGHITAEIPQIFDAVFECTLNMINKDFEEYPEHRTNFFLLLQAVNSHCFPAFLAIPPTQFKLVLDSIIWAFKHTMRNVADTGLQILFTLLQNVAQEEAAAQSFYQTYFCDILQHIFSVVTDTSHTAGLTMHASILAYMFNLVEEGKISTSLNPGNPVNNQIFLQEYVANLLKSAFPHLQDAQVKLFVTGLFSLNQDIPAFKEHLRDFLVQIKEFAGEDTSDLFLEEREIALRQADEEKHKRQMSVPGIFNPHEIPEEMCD
Sequence of Ran-specific GTPase-activating protein (P43487 whole entry): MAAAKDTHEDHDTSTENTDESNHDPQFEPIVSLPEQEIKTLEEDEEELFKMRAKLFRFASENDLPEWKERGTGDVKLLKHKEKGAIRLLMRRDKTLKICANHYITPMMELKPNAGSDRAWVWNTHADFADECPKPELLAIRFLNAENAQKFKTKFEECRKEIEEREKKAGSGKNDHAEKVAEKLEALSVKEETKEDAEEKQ

NC(=O)/C(=C/n1cnc(-c2cc(C(F)(F)F)cc(C(F)(F)F)c2)n1)c1cncnc1 [ELTANEXOR]
IC50 (MM1.S [1]): 84.7 nM
IC50 (RPMI-8226): 217 nM
IC50 (KMS-11): 1260 nM
IC50 [2]: 2700 nM
IC50 (LAMA-84): 2910 nM
IC50 (MV4-11): 55.6 nM
IC50 (ARH-77): 435 nM
IC50 (MOLM-13): 435 nM
IC50 (HCT-116): 130 nM
IC50 (LoVo): 304 nM
IC50 (BXPC-3): 2170 nM
IC50 (AN3-CA): 1170 nM
IC50 (SW872): 1090 nM
IC50 [3]: 550 nM
Activity [4]: Active
inhibition (MM1.S [5]): Dose-dependent-effect
inhibition (MM1.S [6]): Time-dependent-effect
Activity (MM1.S [7]): Active
Activity (MM1.S [8]): Active
half-life [9]: > 2 h
half-life [10]: > 2 h
half-life [11]: > 2 h
half-life [12]: > 2 h
half-life [13]: > 2 h
microsomal CLint [14]: 0.2 µL/min/mg
microsomal CLint [15]: 15.6 µL/min/mg
microsomal CLint [16]: 15.5 µL/min/mg
microsomal CLint [17]: 3.2 µL/min/mg
microsomal CLint [18]: 11.8 µL/min/mg
half-life [19]: 3 h
half-life [20]: 2.7 h
Cmax [21]: 720 ng/mL
Tmax [22]: 1 h
AUC(0-t) at 30 h [23]: 963 ng·h/mL
AUC(0-t) at 30 h [24]: 2540 ng·h/mL
AUC(0-inf) [25]: 998 ng·h/mL
AUC(0-inf) [26]: 2590 ng·h/mL
bioavailability [27]: 52%
IC50 [28]: 8200 nM
Cmax [29]: 141 ng/mL
AUC at 6 h [30]: 83.3 ng·h/mL
AUC at 6 h [31]: 1940 ng·h/mL
Activity [32]: Non-toxic
Activity [33]: Toxic
Activity [34]: Toxic
Activity [35]: Toxic
Activity [36]: Toxic
Activity [37]: Non-toxic
Activity [38]: Non-toxic
Activity [39]: Non-toxic
Activity [40]: Non-toxic

— ChEMBL document CHEMBL6083277, “Discovery of SZJK-0421: A Novel Potent, Low Toxicity, Selective Second Generation of CRM1 Inhibitor for the Treatment of Both Hematological and Solid Tumors” (J Med Chem, 2024)
